Series [1] is described as follows: Brain penetration in mice. In kind it is in vivo. Particulars: for brain permeability / brain penetration: 5 mg/kg IP; for Kp at 60 min: mouse, brain and plasma, ip.
Series [2] can be described thus: Oral pharmacokinetics in mice. It counts as in vivo. Conditions: oral gavage 50 mg/kg.

As for `Clc1cc(Br)cc(CN[C@H]2CCCN(c3nc4nc(Cl)ccc4[nH]3)C2)c1` [Compound 5b], the “brain permeability / brain penetration” value in series [1] (mice) is listed as “poor”. Further, the brain levels result in series [1] (mice, 60 min after IP injection, 5 mg/kg) is on record as “undetectable”.
As a reminder, the Kp is tissue or fluid exposure divided by exposure in the circulation. In series [1] (5 mg/kg), `CCOc1c(Br)cc(Br)cc1CN[C@H]1CCCN(c2nc3nc(Cl)ccc3[nH]2)C1` [Compound 5p] displayed a Kp at 60 min of 0.044 ± 0.006.
On to `CN(CCN[C@@H]1CCNc2c(Cl)cc(Cl)cc21)c1nc2nc(Cl)ccc2[nH]1` [Compound 13], for which the “plasma exposure” value in series [2] was “low plasma exposure”. For the same compound, in series [1] (mice), the “brain permeability / brain penetration” value is listed as “moderately good brain penetration”. Also, the Kp at 60 min in series [1] (5 mg/kg) came to 0.191 ± 0.075.

The values above are taken from PMC5542777 (Bioorganic & medicinal chemistry letters, 2017).
